Results: ChEMBL document CHEMBL1157050, “Synthesis and cytotoxic evaluation of N2-benzylated quaternary beta-carboline amino acid ester conjugates” (Eur J Med Chem, 2010)

What was measured:
Type in all cases: functional, cell-based
KB = test: Cytotoxicity against human KB cells by MTT assay
769-P = test: Cytotoxicity against human 769-P cells by MTT assay
A-375 = test: Cytotoxicity against human A375 cells by MTT assay
[1] = Cytotoxicity against human BGC cells by MTT assay
786-0 = test: Cytotoxicity against human 786-0 cells by MTT assay

Row | SMILES | IC50 (KB) [µM] | IC50 (769-P) [µM] | IC50 (A-375) [µM] | IC50 [1] [µM] | IC50 (786-0) [µM]
1 | CCCCn1c2ccccc2c2cc(C(=O)N[C@@H](C)C(=O)OC)ncc21 | > 200 | 27.2 | > 200 | > 200 | > 200
2 | CCCCn1c2ccccc2c2cc(C(=O)N[C@H](C(=O)OC)C(C)C)ncc21 | > 200 | > 200 | > 200 | > 200 | > 200
3 | CCCCn1c2ccccc2c2cc(C(=O)N[C@@H](CCSC)C(=O)OCC)ncc21 | > 200 | > 200 | > 200 | > 200 | > 200
4 | CCCCn1c2ccccc2c2cc(C(=O)N[C@@H](Cc3ccccc3)C(=O)OCC)[n+](Cc3ccccc3)cc21 | 11.3 | 19.2 | 41.7 | 21.4 | 15
5 | COC(=O)[C@H](C)NC(=O)c1cc2c3ccccc3n(CCCc3ccccc3)c2cn1 | > 200 | > 200 | > 200 | 148 | > 200
6 | CCCCn1c2ccccc2c2cc(C(=O)N[C@@H](CCSC)C(=O)OCC)nc(C)c21 | > 200 | > 200 | > 200 | > 200 | > 200
7 | C[C@H](NC(=O)c1cc2c3ccccc3n(CCCc3ccccc3)c2cn1)C(=O)O | 179 | 120 | 96.3 | 162 | 78.3
8 | CCCCn1c2ccccc2c2cc(C(=O)N[C@@H](Cc3ccccc3)C(=O)O)ncc21 | 155 | 114 | 160 | > 200 | 191
9 | CCOC(=O)[C@@H](NC(=O)c1cc2c3ccccc3n(CCCc3ccccc3)c2c[n+]1Cc1ccccc1)C(C)C | 12.5 | 14 | 10.4 | 17.8 | 4
10 | O=C(N[C@@H](Cc1ccccc1)C(=O)O)c1cc2c3ccccc3n(CCCc3ccccc3)c2cn1 | 38.8 | 8 | 33.8 | 76.1 | 52.7
11 | CC(=O)O[C@H]1C(=O)[C@@]2(C)[C@H]([C@H](OC(=O)c3ccccc3)[C@]3(O)C[C@H](OC(=O)[C@H](O)[C@@H](NC(=O)c4ccccc4)c4ccccc4)C(C)=C1C3(C)C)[C@]1(OC(C)=O)CO[C@@H]1C[C@@H]2O [PACLITAXEL] | 0.08 | 7.1 | 0.81 | 1.5 | < 0.08
12 | CC(C)[C@H](NC(=O)c1cc2c3ccccc3n(CCCc3ccccc3)c2cn1)C(=O)O | 106 | 78.3 | 58 | 139 | 84.6
13 | CCCCn1c2ccccc2c2cc(C(=O)N[C@@H](CCSC)C(=O)OCC)[n+](Cc3ccccc3)cc21 | 10.8 | 7.5 | 8.2 | 13.4 | 1.7
14 | CCOC(=O)[C@@H](NC(=O)c1cc2c3ccccc3n(CCCc3ccccc3)c2cn1)C(C)C | > 200 | > 200 | > 200 | > 200 | > 200
15 | CSCC[C@H](NC(=O)c1cc2c3ccccc3n(CCCc3ccccc3)c2cn1)C(=O)O | 96.6 | 116 | 58.9 | 136 | 70
16 | CCOC(=O)[C@@H](NC(=O)c1cc2c3ccccc3n(Cc3ccccc3)c2c[n+]1Cc1ccccc1)C(C)C | 25.3 | 12.5 | 15.8 | 21.9 | 10.8

Row | SMILES | IC50 (KB) [µM] | IC50 (769-P) [µM] | IC50 (A-375) [µM] | IC50 [1] [µM] | IC50 (786-0) [µM]
17 | CCOC(=O)[C@H](CCSC)NC(=O)c1cc2c3ccccc3n(CCCc3ccccc3)c2c[n+]1Cc1ccccc1 | 9.4 | 7.6 | 7.3 | 12 | 10.1
18 | CCOC(=O)[C@H](Cc1ccccc1)NC(=O)c1cc2c3ccccc3n(Cc3ccccc3)c2c[n+]1Cc1ccccc1 | 51.4 | 13.5 | 25.8 | 92.5 | 69.4
19 | CCOC(=O)[C@H](Cc1ccccc1)NC(=O)c1cc2c3ccccc3n(CCCc3ccccc3)c2c[n+]1Cc1ccccc1 | 18.2 | 22.9 | 21.3 | 23.7 | 23.4
20 | CCOC(=O)[C@H](CCSC)NC(=O)c1cc2c3ccccc3n(CCCc3ccccc3)c2cn1 | 176 | > 200 | > 200 | > 200 | > 200
21 | CCCCn1c2ccccc2c2cc(C(=O)N[C@H](C(=O)OCC)C(C)C)[n+](Cc3ccccc3)cc21 | 28.4 | 13.7 | 22.5 | 44.2 | 14.4
22 | CCCCn1c2ccccc2c2cc(C(=O)N[C@@H](Cc3ccc(O)cc3)C(=O)O)ncc21 | > 200 | > 200 | 121 | > 200 | > 200
23 | CCCCn1c2ccccc2c2cc(C(=O)N[C@@H](Cc3ccccc3)C(=O)OCC)ncc21 | 113 | 32.5 | > 200 | > 200 | > 200
24 | CCCCn1c2ccccc2c2cc(C(=O)N[C@@H](Cc3ccccc3)C(=O)OC)ncc21 | > 200 | > 200 | > 200 | > 200 | > 200
25 | CCCCn1c2ccccc2c2cc(C(=O)N[C@@H](CCSC)C(=O)O)ncc21 | > 200 | 105 | > 200 | > 200 | > 200
26 | CCOC(=O)[C@H](Cc1ccccc1)NC(=O)c1cc2c3ccccc3n(Cc3ccccc3)c2cn1 | > 200 | > 200 | > 200 | > 200 | > 200
27 | CCOC(=O)[C@H](Cc1ccccc1)NC(=O)c1cc2c3ccccc3n(CCCc3ccccc3)c2cn1 | 89.2 | 187 | > 200 | > 200 | > 200
28 | CCOC(=O)[C@H](CCSC)NC(=O)c1cc2c3ccccc3n(Cc3ccccc3)c2cn1 | > 200 | > 200 | > 200 | > 200 | > 200
29 | CCCCn1c2ccccc2c2cc(C(=O)N[C@@H](Cc3ccc(O)cc3)C(=O)OC)ncc21 | > 200 | > 200 | > 200 | > 200 | > 200
30 | CSCC[C@H](NC(=O)c1cc2c3ccccc3n(Cc3ccccc3)c2cn1)C(=O)O | 135 | 145 | 156 | > 200 | > 200
31 | CCCCn1c2ccccc2c2cc(C(=O)N[C@@H](Cc3ccccc3)C(=O)OCC)nc(C)c21 | > 200 | > 200 | > 200 | > 200 | > 200
